Results published in US20220127232A1, “HISTONE ACETYLTRANSFERASE MODULATORS AND COMPOSITIONS AND USES THEREOF” (The Trustees of Columbia University in the City of New York, priority 2019, published 2022).
“Also recorded” adds a separate entry of the source. Where two headings read alike, the source gives them in different places.

What was measured:
[1] = Stability in human liver microsomes; assay type: in vitro ADME; conditions: for microsomal CLint at 1 μM / half-life at 1 μM: both sexes, human, liver microsomes, pH 7.4, human liver microsomes
Protocol: Some compounds were tested for stability in human liver microsomes as shown below in Table 2.
Mixed-gender human liver microsomes (Lot #1010420) were purchased from XenoTech. The reaction mixture, minus NADPH, was prepared as described below. The test article was added into the reaction mixture at a final concentration of 1 μM. The control compound, testosterone, was run simultaneously with the test article in a separate reaction. An aliquot of the reaction mixture (without cofactor) was equilibrated in a shaking water bath at 37° C. for 3 minutes. The reaction was initiated by the addition of the cofactor, and the mixture was incubated in a shaking water bath at 37° C. Aliquots (100 μL) were withdrawn at 0, 10, 20, 30, and 60 minutes. Test article and testosterone samples were immediately combined with 400 μL of ice-cold 50/50 acetonitrile (ACN)/H2O containing 0.1% formic acid and internal standard to terminate the reaction. The samples were then mixed and centrifuged to precipitate proteins. All samples were assayed by LC-MS/MS using electrospray ionization. Analytical conditions are outlined in Appendix 1. The peak area response ratio (PARR) to internal standard was compared to the PARR at time 0 to determine the percent remaining at each time point. Half-lives and clearance were calculated using GraphPad software, fitting to a single-phase exponential decay equation.
Liver Microsomes 0.5 mg/mL NADPH (cofactor) 1 mM
Potassium Phosphate, pH 7.4 100 mM
Intrinsic clearance (CLint) was calculated based on CLint=k/P, where k is the elimination constant and P is the protein concentration in the incubation.

mice [2] = experiment: Contextual fear memory; assay type: in vivo
Protocol: FIG. 28 is a graph showing that RA010115 rescues oTau- and oAβ-induced defects in contextual fear memory. There is statistical significance when comparing all groups during testing for contextual fear memory at 24 hrs after the electric shock (ANOVA among all groups: F(5, 57)=5.558 p=0.0003). […] The performance was not impaired when mice were treated with only RA010115 or vehicle.

mice [3] = experiment: 2 day radial arm water maze (RAWM), spatial short-term memory; assay type: in vivo
Protocol: Synaptic plasticity is thought to underlie memory formation. RA010115 was also tested in assays aimed at determining whether the compound can be beneficial to two types of memory, short-term spatial memory that can tested through the 2 day radial arm water maze, and contextual fear memory, a type of associative memory that depends upon hippocampal function and is impaired in AD patients. FIG. 27 is a graph showing that RA010115 rescues oTau- and oAβ-induced defects in the 2-day radial arm water maze test of spatial short-term memory. The performance in the RAWM was impaired in mice administered with oAβ (200 nM) oTau (500 nM). […] The performance was not impaired when mice were treated with only RA010115 or vehicle. (ANOVA for repeated measures among all groups at day 2: F(5, 65)=7.092, p<0.0001. One-way ANOVA for block 10: F(5, 65)=7.385, p<0.0001; Bonferroni's p<0.0001 for both oAβ vs. vehicle and oTau vs. vehicle; oAβ vs RA010115 plus oAβ p<0.001 and for oTau vs RA010115 plus oTau p<0.05.

[4] = mice treated with only compound

SMILES: COc1cccc(OC)c1C(=O)Nc1ccc(Cl)c(C(F)(F)F)c1 [RA010115]
- microsomal CLint at 1 μM ([1]; calculated value printed in parentheses behind the bound, read-out: CLint, value in parentheses): 150 µL/min/mg
- half-life at 1 μM ([1]; fitted value printed in parentheses behind the bound, read-out: Half-life, value in parentheses): 9.25 min
- microsomal CLint at 1 μM ([1]; read-out: CLint): > 139 µL/min/mg
- half-life at 1 μM ([1]; read-out: Half-life): < 10 min
- % Remaining of Initial (n = 1) 0 min ([1]; human liver microsomes, test article 1 μM, 0 min): 100%
- % Remaining of Initial (n = 1) 10 min ([1]; human liver microsomes, test article 1 μM, 10 min): 47.7%
- % Remaining of Initial (n = 1) 20 min ([1]; human liver microsomes, test article 1 μM, 20 min): 21.1%
- % Remaining of Initial (n = 1) 30 min ([1]; human liver microsomes, test article 1 μM, 30 min): 11.4%
- % Remaining of Initial (n = 1) 60 min ([1]; human liver microsomes, test article 1 μM, 60 min): 2.59%
- oTau- and oAβ-induced defects in contextual fear memory (freezing) (mice [2]; 24 hrs after the electric shock): rescues
- Contextual fear memory performance, compound alone (mice [2]; [4]): not impaired
- oTau- and oAβ-induced defects in RAWM performance (mice [3]; mice administered oAβ (200 nM) or oTau (500 nM), compound 5 mg/kg, 5 mg/kg): rescued the deficit; also recorded: rescues
- RAWM performance, compound alone (mice [3]; [4]): not impaired
